Data taken from the supplement of paper PMC10307832.

Assays:
Assay in all cases: relative viability (nuclei count vs DMSO), 5 days (fraction); higher = more cells survive
VE-821 + Phenformin = compound: CS(=O)(=O)c1ccc(-c2cnc(N)c(C(=O)Nc3ccccc3)n2)cc1 [VE-821] + N=C(N)NC(=N)NCCc1ccccc1 [Phenformin] (partner 250 µM)
Summary of the method: (§1)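 Lung cancer cell lines in 1536-well plates got either a single drug or a fixed anchor-drug dose together with five library-drug doses (not always all listed) in √10 steps, by pin tool, on the day after seeding. Nuclei were counted after 5 days, and relative viability is the treated-to-vehicle ratio of nuclei counts. Values are medians of duplicate plates.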

Vismodegib + Luminespib = compound: CS(=O)(=O)c1ccc(C(=O)Nc2ccc(Cl)c(-c3ccccn3)c2)c(Cl)c1 [Vismodegib] + CCNC(=O)c1noc(-c2cc(C(C)C)c(O)cc2O)c1-c1ccc(CN2CCOCC2)cc1 [Luminespib] (partner 0.01 µM)
Summary of the method: as §1

VE-821 + Navitoclax = compound: CS(=O)(=O)c1ccc(-c2cnc(N)c(C(=O)Nc3ccccc3)n2)cc1 [VE-821] + CC1(C)CCC(c2ccc(Cl)cc2)=C(CN2CCN(c3ccc(C(=O)NS(=O)(=O)c4ccc(N[C@H](CCN5CCOCC5)CSc5ccccc5)c(S(=O)(=O)C(F)(F)F)c4)cc3)CC2)C1 [Navitoclax] (partner 0.5 µM)
Summary of the method: as §1

Vismodegib + Trametinib = compound: CS(=O)(=O)c1ccc(C(=O)Nc2ccc(Cl)c(-c3ccccn3)c2)c(Cl)c1 [Vismodegib] + CC(=O)Nc1cccc(-n2c(=O)n(C3CC3)c(=O)c3c(Nc4ccc(I)cc4F)n(C)c(=O)c(C)c32)c1 [Trametinib] (partner 0.02 µM)
Summary of the method: as §1

Cell Line | relative viability (VE-821 + Phenformin; first compound 0.08 µM) | relative viability (VE-821 + Phenformin; first compound 0.253 µM) | relative viability (VE-821 + Phenformin; first compound 0.8 µM) | relative viability (VE-821 + Phenformin; first compound 2.53 µM) | relative viability (VE-821 + Phenformin; first compound 8 µM) | relative viability (Vismodegib + Luminespib; first compound 0.08 µM) | relative viability (Vismodegib + Luminespib; first compound 0.253 µM) | relative viability (Vismodegib + Luminespib; first compound 0.8 µM) | relative viability (Vismodegib + Luminespib; first compound 2.53 µM) | relative viability (Vismodegib + Luminespib; first compound 8 µM) | relative viability (VE-821 + Navitoclax; first compound 0.08 µM) | relative viability (VE-821 + Navitoclax; first compound 0.253 µM) | relative viability (VE-821 + Navitoclax; first compound 0.8 µM) | relative viability (VE-821 + Navitoclax; first compound 2.53 µM) | relative viability (VE-821 + Navitoclax; first compound 8 µM) | relative viability (Vismodegib + Trametinib; first compound 0.08 µM) | relative viability (Vismodegib + Trametinib; first compound 0.253 µM) | relative viability (Vismodegib + Trametinib; first compound 0.8 µM) | relative viability (Vismodegib + Trametinib; first compound 2.53 µM) | relative viability (Vismodegib + Trametinib; first compound 8 µM)
ABC-1 | 0.308 | 0.26 | 0.203 | 0.244 | 0.211 | 0.577 | 0.381 | 0.551 | 0.672 | 0.405 | – | – | – | – | – | – | – | – | – | –
LOU-NH91 | 0.742 | 0.701 | 0.693 | 0.706 | 0.734 | 0.28 | 0.334 | 0.352 | 0.366 | 0.301 | 0.75 | 0.732 | 0.592 | 0.777 | 0.564 | 0.762 | 0.804 | 0.8 | 0.786 | 0.772
NCI-H727 | 0.503 | 0.552 | 0.547 | 0.537 | 0.385 | 0.428 | 0.518 | 0.322 | 0.359 | 0.422 | 0.478 | 0.57 | 0.411 | 0.546 | 0.216 | 0.446 | 0.367 | 0.405 | 0.403 | 0.418
NCI-H2023 | 0.481 | 0.394 | 0.282 | 0.272 | 0.139 | 0.634 | 0.789 | 0.891 | 0.68 | 0.794 | 1.01 | 1.02 | 0.808 | 0.686 | 0.296 | 0.568 | 0.538 | 0.605 | 0.47 | 0.498
NCI-H1563 | 0.653 | 0.676 | 0.613 | 0.688 | 0.596 | 0.468 | 0.48 | 0.529 | 0.545 | 0.571 | – | – | – | – | – | – | – | – | – | –
LCLC-103H | 0.335 | 0.31 | 0.352 | 0.351 | 0.269 | 1.03 | 0.968 | 0.93 | 0.884 | 1.07 | – | – | – | – | – | 0.703 | 0.666 | 0.65 | 0.612 | 0.71
HARA | 0.497 | 0.459 | 0.469 | 0.484 | 0.356 | 0.699 | 0.843 | 0.888 | 0.655 | 0.779 | 1.23 | 1.13 | 1.09 | 1.15 | 0.99 | 0.749 | – | 0.613 | 0.689 | 0.659
RERF-LC-KJ | 0.397 | 0.361 | 0.377 | 0.407 | 0.41 | 1.18 | 1.21 | 1.16 | 1.24 | 1.22 | 0.94 | 0.824 | 0.881 | 0.671 | 0.651 | 0.847 | 0.823 | 0.84 | 0.826 | 0.862
NCI-H2009 | 0.507 | 0.471 | 0.498 | 0.461 | 0.36 | 0.873 | 0.968 | 1.03 | 1.01 | 1.04 | 1.16 | 1.13 | 1.13 | 1.26 | 1.16 | 0.313 | 0.321 | 0.309 | 0.291 | 0.331
NCI-H2126 | 0.565 | 0.494 | 0.51 | 0.514 | 0.409 | 0.84 | 0.921 | 0.809 | 0.851 | 0.82 | 0.897 | 0.821 | 0.833 | 0.815 | 0.699 | 0.558 | 0.519 | 0.568 | 0.58 | 0.565
SW 900 | 0.575 | 0.555 | 0.425 | 0.711 | 0.572 | 0.183 | 0.164 | 0.164 | 0.19 | 0.163 | – | – | – | – | – | 0.801 | 0.73 | 1.1 | – | 0.921
NCI-H1703 | – | – | – | – | – | – | – | – | – | – | 1.25 | 0.923 | 1.17 | 0.394 | 0.246 | – | – | – | – | –
NCI-H358 | 0.386 | 0.311 | 0.352 | 0.373 | 0.281 | 0.325 | 0.258 | 0.418 | 0.33 | 0.204 | – | – | – | – | – | 0.151 | 0.139 | 0.14 | 0.128 | 0.139
HCC-78 | 0.646 | 0.639 | 0.746 | 0.731 | 0.617 | – | – | – | – | – | 0.831 | 0.783 | 0.707 | 1.04 | 0.654 | 0.826 | 0.768 | 0.598 | 0.743 | 0.739
EBC-1 | – | – | – | – | – | – | – | – | – | – | 0.44 | 0.412 | 0.399 | 0.254 | 0.221 | – | – | – | – | –
NCI-H661 | 0.282 | 0.255 | 0.272 | 0.286 | 0.311 | 0.945 | 0.909 | 0.934 | 0.876 | 0.889 | – | – | – | – | – | 0.549 | 0.611 | 0.649 | 0.558 | 0.622
NCI-H2342 | 0.756 | 0.663 | 0.548 | 0.508 | 0.475 | 0.588 | 0.728 | 0.748 | 0.79 | 0.71 | – | – | – | – | – | 1.02 | 0.738 | 0.843 | 0.764 | 0.728
NCI-H1299 | – | – | – | – | – | – | – | – | – | – | 1.05 | 1.04 | 1.01 | 1 | 1.03 | – | – | – | – | –
Calu-6 | – | – | – | – | – | – | – | – | – | – | 0.845 | 0.828 | 0.791 | 0.648 | 0.35 | – | – | – | – | –
IA-LM | – | – | – | – | – | – | – | – | – | – | 0.855 | 0.71 | 0.755 | 0.92 | 0.527 | – | – | – | – | –
NCI-H650 | 0.448 | 0.429 | 0.45 | 0.494 | 0.468 | 0.843 | 0.791 | 0.638 | 0.802 | 0.865 | – | – | – | – | – | 0.891 | 0.91 | 0.846 | 0.981 | 1.05
NCI-H1648 | – | – | – | – | – | – | – | – | – | – | – | – | – | – | – | 0.38 | 0.48 | 0.383 | 0.49 | 0.535
NCI-H522 | 0.675 | 0.593 | 0.662 | 0.555 | 0.654 | 1.1 | 1.1 | 0.939 | 1.34 | 1.09 | – | – | – | – | – | 0.797 | 0.763 | 0.639 | 0.609 | 0.669
A549 | 0.182 | 0.214 | 0.157 | 0.13 | 0.103 | – | – | – | – | – | 1.48 | 1.21 | 1.18 | 1.04 | 0.544 | – | – | – | – | –
